Where two headings read alike, the source gives them in different places.

For data set [1], the target named is T1, recombinant Hsp90α (Homo sapiens, UniProt P07900).
T1 construct: purchased Assay Designs (Ann Arbor, MI, USA)
The experiment in a line: Surface plasmon resonance binding to immobilized Hsp90α. Here is the method: SPR analyses were carried out according to our previously published procedures, [23]. Briefly, SPR analyses were performed using a Biacore 3000 optical biosensor equipped with research−grade CM5 sensor chips (GE Healthcare). Using this platform, two separate recombinant Hsp90α surfaces, a BSA surface and one unmodified reference surface were prepared for simultaneous analyses. Proteins (100 µg mL^−1 in 10 mM CH3COONa, pH 5.0) were immobilized on individual sensor chip surfaces at a flow rate of 5 µL min^−1 using standard amine−coupling protocols to obtain densities of 8–12 kRU. Polyphenols, as well as 17-AAG and hardwickiic acid (HA), were dissolved in 100% DMSO to obtain 4 mM solutions, and diluted 1∶200 (v/v) in PBS (10 mM NaH2PO4, 150 mM NaCl, pH 7.4) to a final DMSO concentration of 0.5%. […] Binding experiments were performed at 25°C, using a flow rate of 50 µL min^−1, with 60 s monitoring of association and 300 s monitoring of dissociation. Simple interactions were suitably fitted to a single−site bimolecular interaction model (A+B = AB), yielding a single K D. Sensorgram elaborations were performed using the BIAevaluation software provided by GE Healthcare.
Putative interactions of different plant-derived phenolic compounds with Hsp90α were evaluated by a SPR-based approach.
(SPR reads the build-up and loss of mass on a sensor chip optically.)

The test system of data set [2] is PBMC (human Peripheral Blood Mononuclear Cells). The experiment in a line: Cytotoxicity in PHA-stimulated proliferating PBMC. The class given is cell-based. To be noted: 24 h, trypan blue, only at high doses. Here is the method:
To ensure logarithmic growth, cells were subcultured every two days. As control cells, human peripheral blood mononuclear cells (PBMC) were isolated from buffy coats of healthy donors (kindly provided by the Blood Center of the Hospital of Battipaglia, Salerno, Italy) by using standard Ficoll−Hypaque gradients. […] Proliferation of PBMC was induced by phytohemagglutinin (PHA) (10 µg mL^−1). […] Stock solutions of geraniin (50 mM in DMSO) and 17-AAG (10 mM in DMSO) were stored a −20°C in the dark and diluted just before addition to the sterile culture medium. In all the experiments, the final concentration of DMSO was 0.10% (v/v).
The number of viable cells was determined by using a [3–4,5-dimethyldiazol-2-yl]-2,5-diphenyl tetrazolium bromide (MTT, Sigma-Aldrich) conversion assay, according to the method described by Mosmann. Briefly, following the treatment, 25 µL of MTT (5 mg/mL in PBS) was added and the cells were incubated for additional 3 h at 37°C. Thereafter, cells were lysed and suspended with 100 µL of buffer containing 50% (v/v) N,N-dimethylformamide, 20% SDS (pH 4.5). The absorbance was measured with a microplate reader (Titertek multiskan MCC7340, LabSystems, Vienna, VA, USA) equipped with a 620 nm filter. Cell population growth inhibition was tested by cytometric counting (trypan blu exclusion).

Data set [3] concerns PHA-stimulated proliferating PBMC. The experiment in a line: Hypodiploidy/necrosis by flow cytometry, PHA-stimulated PBMC. The class given is cell-based, human. The following applies: untreated cells 1.5±0.8%. How it is done:
Jurkat and HeLa (epithelial carcinoma) cells, obtained from Cell Bank in GMP-IST (Genova, Italy) were maintained in RPMI 1640 medium or Dulbecco’s modified Eagle medium (DMEM), respectively, supplemented with 10% (v/v) FBS, 2 mM L−glutamine and antibiotics (100 U mL^−1 penicillin, 100 µg mL^−1 streptomycin) purchased from Invitrogen (Carslbad, CA, USA), at 37°C in humidified atmosphere with 5% CO2. To ensure logarithmic growth, cells were subcultured every two days. As control cells, human peripheral blood mononuclear cells (PBMC) were isolated from buffy coats of healthy donors (kindly provided by the Blood Center of the Hospital of Battipaglia, Salerno, Italy) by using standard Ficoll−Hypaque gradients. Freshly isolated PBMC contained 92.8±3.1% live cells. Proliferation of PBMC was induced by phytohemagglutinin (PHA) (10 µg mL^−1). […]
Cell DNA content was measured by propidium iodide (PI) incorporation into permeabilized cells, as described by Nicoletti et al.. […] The percentage of cells in the sub G0/G1 phase, apoptotic fraction, was quantified using CellQuest software (Becton Dickinson). The distribution of cells in G0/G1, S, G2/M phases was determined using ModFit LT cell cycle analysis software (Becton Dickinson). Results were expressed as a mean ± SD of three experiments performed in triplicate.

The subject of data set [4] is HeLa cells. Briefly: Cell cycle and hypodiploidy by flow cytometry (PI), HeLa. Type of data set: cell-based, human. To be noted: 24 h, geraniin 5 µM, 17-AAG 0.2 µM. How it is done: (§1) Cell DNA content was measured by propidium iodide (PI) incorporation into permeabilized cells, as described by Nicoletti et al.. Briefly, the cells were harvested after geraniin or 17-AAG treatments were washed with cold PBS and incubated with a PI solution (0.1% sodium citrate, 0.1% Triton X-100 and 50 µg mL^−1 of prodium iodide, Sigma-Aldrich, 10 µg/ml Rnase A) for 30 min at room temperature. Data from 10.000 events per sample were collected by a FACScalibur flow cytometer (Becton Dickinson, San José, CA) and cellular debris was excluded from analysis by raising the forward scatter threshold. The percentage of cells in the sub G0/G1 phase, apoptotic fraction, was quantified using CellQuest software (Becton Dickinson). The distribution of cells in G0/G1, S, G2/M phases was determined using ModFit LT cell cycle analysis software (Becton Dickinson). Results were expressed as a mean ± SD of three experiments performed in triplicate.
(§2) Figure 6 Effects of geraniin and 17-AAG on cell cycle progression. Percentage of cell cycle stages was analyzed by flow cytometry, (A) PI-stained viable Jurkat cells treated with DMSO, 0.7 µM geraniin or 10 µM 17-AAG for 24 h.
A general note: A flow cytometer gives signals particle by particle.

Data set [5] concerns HeLa cells. The experiment in a line: MTT cell viability, HeLa. The class given is cell-based, human. To be noted: 24 h. How it is done:
(§3) To ensure logarithmic growth, cells were subcultured every two days. As control cells, human peripheral blood mononuclear cells (PBMC) were isolated from buffy coats of healthy donors (kindly provided by the Blood Center of the Hospital of Battipaglia, Salerno, Italy) by using standard Ficoll−Hypaque gradients. […] Proliferation of PBMC was induced by phytohemagglutinin (PHA) (10 µg mL^−1). Tumor and PBMC cells were treated with different concentrations of geraniin or 17-AAG to evaluate their cytotoxic effects. Stock solutions of geraniin (50 mM in DMSO) and 17-AAG (10 mM in DMSO) were stored a −20°C in the dark and diluted just before addition to the sterile culture medium. In all the experiments, the final concentration of DMSO was 0.10% (v/v).
(§4) Jurkat (2×10^4/well) and HeLa (5000/well) cells were seeded in triplicate in 96 well−plates and incubated for 24 h in the absence or presence of different concentrations of geraniin (between 0,5 µM to 50 µM) or 17-AAG (between 0,5 nM to 10 µM).
(§5) The number of viable cells was determined by using a [3–4,5-dimethyldiazol-2-yl]-2,5-diphenyl tetrazolium bromide (MTT, Sigma-Aldrich) conversion assay, according to the method described by Mosmann. […] The absorbance was measured with a microplate reader (Titertek multiskan MCC7340, LabSystems, Vienna, VA, USA) equipped with a 620 nm filter. […]

Data set [6] relates to Jurkat cells. The experiment in a line: MTT cell viability, Jurkat. The following applies: 24 h. The class given is cell-based, human. How it is done:
as §3, §4, §5

In data set [7] the test system is Jurkat cells. Briefly: Cell cycle and hypodiploidy by flow cytometry (PI), Jurkat. The class given is cell-based, human. To be noted: 24 h, geraniin 0.7 µM, 17-AAG 10 µM. How it is done: as §1, §2
For data set [8], the target named is T2, Hsp90α chaperone activity (Homo sapiens, UniProt P07900).
T2 construct: purchased Assay Designs (Ann Arbor, MI, USA)
The experiment in a line: Citrate synthase thermal-induced aggregation assay (chaperone activity). The class given is biochemical. The following applies: 0.075 µM CS, 0.075 µM Hsp90α, 0.3 µM ATP, four-fold molar excess (0.3 µM) compound, 43°C. How it is done: Chaperone activity was evaluated by monitoring the thermal−induced aggregation of citrate synthase (CS) (0.075 µM), as reported elsewhere, in the absence or presence of a stoichiometric amount of Hsp90α and 0.3 µM ATP, and with or without a four−fold molar excess of each testing compound. Aggregation was initiated by unfolding CS incubating the protein in 40 mM HEPES–KOH, pH 7.5 at 43°C. Aggregation was monitored by measuring light scattering at right angles with the Perkin Elmer LS 55 fluorimeter in stirred and thermostatted quartz cells. Both the emission and excitation wavelengths were set at 500 nm, while the band–pass was 2 nm. Kinetics traces reported are the averages of two separate measurements.
Figure 3 Inhibition of Hsp90α activity. ATPase activity of the chaperone was evaluated in the presence of different concentrations of geraniin, 17-AAG and HA (A). Data are reported as the residual ATPase activity (%) compared to that observed for an untreated sample. Data are the mean of three independent experiments performed in triplicate and were analyzed by t test (HA vs testing compounds): The error bar represents the standard deviation of nine measurements, while * indicates significance at P<0.01. Aggregation kinetics of citrate synthase (CS) at 43°C determined by light scattering (B). […]

Where [9] appears, read: SPR, immobilized Hsp90α, 25°C, single-site bimolecular model, 0.025-1 µM, read-out: KD.

Turning to `O=c1c(O)c(-c2ccc(O)cc2)oc2cc(O)cc(O)c12` [Compound 2], the Kd (in general, the constant that tells how readily two partners part at equilibrium) in data set [1] (setting [9]) was 4.83 ± 0.515 µM.

For the compound `O=c1c(O)c(-c2ccc(O)c(O)c2)oc2cc(O)ccc12` [Compound 4], in data set [1] (setting [9]), the dissociation constant Kd turned out to be 5.33 ± 0.862 µM.

On to `COc1cc(-c2oc3cc(O)cc(O)c3c(=O)c2O)ccc1O` [Compound 5], for which, in data set [1], the Kd was determined as 0.748 ± 0.045 µM.

As for `CC(=O)Oc1cc(OC(C)=O)c2c(=O)c(OC(C)=O)c(-c3ccc(OC(C)=O)c(OC(C)=O)c3)oc2c1` [Compound 6], the Kd in data set [1] (setting [9]) came to 2.21 ± 0.351 µM.

`C=CCNC1=C2C[C@@H](C)C[C@H](OC)[C@H](O)[C@@H](C)/C=C(\C)[C@H](OC(N)=O)[C@@H](OC)/C=C\C=C(/C)C(=O)NC(=CC1=O)C2=O` [Compound 17-AAG, 17-(allylamino)-17-demethoxygeldanamycin, reference compound]: the “cytotoxic effects in control PBMC” value in data set [2] is on record as “Minimal cytotoxic effects”. This compound registered a levels of hypodiploidy/necrosis in data set [3] of 1.8±0.6%. The cell cycle arrest entry is “G1 and G2/M arrest” in data set [4]; “G1 and G2/M arrest” in data set [7]. Also, the “percentage of cells with hypodiploid nuclei” value in data set [4] is on record as 11.6±0.5%; in data set [7], 6.05±0.4%. Besides, the IC50 (commonly the concentration that gives 50% inhibition) was 0.2 ± 0.3 µM in data set [5] and 9.6 ± 0.15 µM in data set [6].

Take `O=c1cc(-c2ccc(O)cc2)oc2cc(O)cc(O)c12` [Compound 19]: the Kd in data set [1] (setting [9]) was determined as 8.75 ± 0.735 µM.

`O=C1c2c(O)cc(O)cc2OC(c2ccc(O)c(O)c2)C1O` (stereo not shown) [Compound 34]: the Kd in data set [1] (setting [9]) was 1.82 ± 0.242 µM.

In the case of `C[C@@H]1CC[C@@]2(C)C(C(=O)O)=CCC[C@@H]2[C@@]1(C)CCc1ccoc1` [HA, hardwickiic acid, reference compound], the “effect on citrate synthase aggregation kinetics in the presence of Hsp90α” value in data set [8] was “did not perturb the CS+Hsp90α curve”. Besides, the KD entry in data set [1] (SPR, immobilized Hsp90α, 25°C, single-site bimolecular model, 0.025-1 µM) is given as “No binding”.

These data come from paper PMC3774728, “Identification of the Plant Compound Geraniin as a Novel Hsp90 Inhibitor” (PLoS ONE, 2013).
